Laboratory results from US9102648B1, “Bioavailable diacylhydrazine ligands for modulating the expression of exogenous genes via an ecdysone receptor complex” (Intrexon Corporation, priority 2003, dated 2015).
Converted amounts (≈) assume the structure as drawn.

Columns and labels:
[1] = Partition coefficient Log (D), 1-octanol / pH 7.4 buffer; type: physicochemical; details: water-saturated 1-octanol / pH 7.4 buffer, room temperature
Experimental: The partition coefficient, Log (D), between water-saturated 1-octanol and pH 7.4 buffer was determined for the test compounds. The buffer was prepared as described in section 2. A 12 μl aliquot of a 10 mM stock solution in DMSO was introduced to a vial containing 0.60 mL of octanol and 0.60 mL of buffer at room temperature. Testosterone was also added to a final concentration of 100 μM as an internal control. The solution was vortexed for 60 minutes and centrifuged at 10,000 rpm for 10 minutes. The organic and aqueous layers were removed. Serial dilutions of the organic layer were made with 50% methanol except for the initial dilution, which was made in 100% methanol. Serial dilutions of the aqueous layer were made in the pH 7.4 buffer. The diluted samples were then assayed by LC/MS for the compound as well as for testosterone. The Log of the ratio of peak area responses was calculated to obtain the Log (D). Typical Log D values for testosterone are from 3.0-3.3.

physchem [2] = details: pH 7.4, aqueous buffer, thermodynamic from solid
Experimental: Equilibrium solubility was measured in pH 7.4 aqueous buffer. The buffer was prepared by adjusting the pH of a 0.07 M solution of NaH2PO4 to pH 7.4 with 10 N NaOH. […] At least 1 mg of powder was combined with 1 mL of buffer to make >1 mg/mL mixture. These samples were shaken for ≧2 hours and left to stand overnight at room temperature. The samples were then filtered through a 0.45-μm Nylon syringe filter that was first saturated with the sample. The filtrate was sampled twice, consecutively. The filtrate was assayed by HPLC against standards prepared in methanol.

physchem [3] = details: water, kinetic from dmso stock
Experimental: Aqueous solutions are prepared as follows in triplicate: 50 μl of a 10,000 ppm solution (2,000 μg of solid dissolved in 200 μl of methanol) of the substrate in methanol or DMSO is added to 1 mL of de-ionized water in a 2 dram or smaller vial with magnetic stirring. Stirring is continued overnight at ambient temperature. The slurry is taken up into a syringe with a luer tip. The contents are passed through a new 13 mm 0.2 ρM Acrodisc filter (tuffryn or glass fiber) into an autosampler bottle. For preparation of calibration standard solutions: dilutions of the 10,000 ppm solution were prepared at 10, 5, 1, 0.5, and 0.2 ppm. […] For more soluble materials, dilution of the samples into this range is preferable to increasing the calibration range because the non-linearity of the response results in less useful calibration curves. However a shift in the range of calibration standards is required for very insoluble compounds.
Chromatography of the samples was then preformed. For most diacylhydrazines the following conditions were adequate for the measurement. Other columns and gradients may be substituted as appropriate.
Analysis of the test samples is conducted as follows: Each solubility replicate is analyzed in duplicate. […] Standard curves are obtained from duplicate injections of the standards. The concentration of the substrate is determined by calculation from the equation relating concentration and response.

[4] = test system: mutated ecdysone receptor-based gene switch; experiment: In vivo SEAP induction, ligand administered in rodent chow; parameters: species or system C57BL/6 mouse; details: feed 2 g/kg ad libitum
Experimental: Applicants' ligands are useful in various applications including gene therapy, expression of proteins of interest in host cells, production of transgenic organisms, and cell-based assays. In vivo induction of a reporter enzyme with various ligands of the present invention was evaluated in a C57BL/6 mouse model system containing a gene switch.
Each element of the gene switch was on a separate plasmid. Receptor expression was under the control of a CMV promoter (SEQ ID NO: 15). Induction was evaluated by the amount of reporter protein expressed in the presence of ligand.
SEAP expression in serum of mice was evaluated after electroporation of the gene switch into mouse quadriceps. Mice were anesthetized with 2 μL/g of a mixture of ketamine (100 mg/mL) and xylazine (20 mg/mL). Animals were then shaved, DNA vectors injected into the muscle in a volume of 2×50 μL polyglutamic acid (12 mg/mL water), electrode conductivity gel applied, and an electrode caliber (1 cm×1 cm; model 384) was placed on hind leg. The muscle was electroporated with 200 V/cm, 8 times, for 20 msec/pulse, at 1 sec time intervals. The transverse electrical field direction was reversed after the animals received half of the pulses. Electroporation was performed with an ECM 830 electroporator from BTX Molecular Delivery Systems.
In some experiments mice received an intraperitoneal injection (IP) of 2.6 μmol of ligand in 50 μL of DMSO 3 days after electroporation of the gene switch. In other experiments the concentration of ligand was decrease to 26 nmol/50 μL of DMSO/mouse. SEAP expression was evaluated 2-11 days after ligand administration. In other experiments ligand was administered in rodent chow. The chow was prepared by dissolving 2 g of ligand in 20 mL of acetone and adding it to 1 kg of LabDiet 5010 autoclavable chow from Purina Mills. This was thoroughly mixed in a Hobart mixer and then mixed for an additional 15 min in a Cross Blend mixer. Animals received chow ad libitum for 1, 2, or 3 days. All values are the average from four animals. Background SEAP in sera from animals treated with vector alone without ligand addition was 0-11 ng/mL serum.
Mouse serum was obtained by centrifugation of blood acquired by retroorbital bleeding with a small glass capillary tube. SEAP quantification was determined using a Clontech Great Escape chemiluminescence kit and by comparison with the Clontech SEAP standard.
Table 11: Induction of SEAP in C57BL/6 mice with GS™-E ligand or RG-103309 administered in rodent chow. SEAP expression in serum of mice was evaluated after electroporation of the gene expression cassettes into mouse quadriceps. Mice received GS™-E ligand or RG-103309 in their feed (2 g/kg) 3 days after electroporation. Feed was administered ad libitum for 1, 2, or 3 days. After each interval ligand-treated feed was removed and animals received untreated feed. Values are the average from 4 animals.

Structure (SMILES): COc1cnccc1C(=O)N(NC(=O)c1cccc(O)c1C)C(C)(C)C [RG-115595]
- Log(D) Octanol/pH 7.4 [1]: 2.1

Structure (SMILES): COc1cccc(C(=O)NN(C(=O)c2cc(C)cc(C)c2)C(C)(C)C)c1C [RG-102398]
- Log(D) Octanol/pH 7.4 [1]: 3.5

Structure (SMILES): CCc1ccc(C(=O)NN(C(=O)c2cc(C)cc(C)c2)C(C)(C)C)c(F)c1 [RG-101523, 3,5-Dimethyl-benzoic acid N-tert-butyl-N′-(4-ethyl-2-fluoro-benzoyl)-hydrazide]
- Log(D) Octanol/pH 7.4 [1]: 2.9

Structure (SMILES): Cc1cc(C)cc(C(=O)N(NC(=O)c2ccc3c(c2C)OCCO3)C(C)(C)C)c1 [RG-102317, N-(5-methyl-1,4-benzodioxan-6-carbonyl)-N′-(tert-butyl)-N′-(3,5-dimethylbenzoyl)hydrazine]
- solubility (physchem [2]): 4.3 µg/mL (≈ 10.8 µM)
- Log(D) Octanol/pH 7.4 [1]: 3.6
- solubility kinetic (physchem [3]): 10.1 µM (≈ 4 µg/mL)

Structure (SMILES): CC(=O)c1ccc(C(=O)NN(C(=O)c2cc(C(=O)O)cc(C(=O)O)c2)C(C)(C)C)cc1 [RG-100150]
- Log(D) Octanol/pH 7.4 [1]: −2.1

Structure (SMILES): CCc1c(C(=O)NN(C(=O)c2ccc(F)c(C(F)(F)F)c2)C(C)(C)C)ccc2c1OCCO2 [RG-115280]
- Log(D) Octanol/pH 7.4 [1]: 3.9

Structure (SMILES): CCCC(N(NC(=O)c1cccc(OC)c1C)C(=O)c1cc(C)cc(C)c1)C(C)(C)C (stereo not shown) [RG-115823]
- Log(D) Octanol/pH 7.4 [1]: 3.3

Structure (SMILES): COc1ccc(C(=O)N(NC(=O)c2ccc3c(c2C)OCCO3)C(C)(C)C)c(OC)n1 [RG-115517, 2,6-dimethoxy-nicotinic acid N-tert-butyl-N′-(5-methyl-2,3-dihydro-benzo[1,4]dioxine-6-carbonyl)-hydrazide]
- Log(D) Octanol/pH 7.4 [1]: 2.9

Structure (SMILES): CCC(N(NC(=O)c1cccc(C)c1C)C(=O)c1cc(C)cc(C)c1)C(C)(C)C (stereo not shown) [RG-103309, 3,5-dimethyl-benzoic acid N′-(2,3-dimethyl-benzoyl)-N-(1-ethyl-2,2-dimethyl-propyl)-hydrazide]
- Log(D) Octanol/pH 7.4 [1]: 3.0
- Secreted Alkaline Phosphatase Day 2 ([4]; dose period 1 day): 9,003 ng/ml mouse sera
- Secreted Alkaline Phosphatase Day 3 ([4]; dose period 1 day): 14,850 ng/ml mouse sera
- Secreted Alkaline Phosphatase Day 7 ([4]; dose period 1 day): 5,172 ng/ml mouse sera
- Secreted Alkaline Phosphatase Day 2 ([4]; dose period 2 day): 6,971 ng/ml mouse sera
- Secreted Alkaline Phosphatase Day 3 ([4]; dose period 2 day): 16,518 ng/ml mouse sera
- Secreted Alkaline Phosphatase Day 7 ([4]; dose period 2 day): 7,460 ng/ml mouse sera
- Secreted Alkaline Phosphatase Day 2 ([4]; dose period 3 day): 11,126 ng/ml mouse sera
- Secreted Alkaline Phosphatase Day 3 ([4]; dose period 3 day): 20,373 ng/ml mouse sera
- Secreted Alkaline Phosphatase Day 7 ([4]; dose period 3 day): 11,549 ng/ml mouse sera

Structure (SMILES): CCc1c(OC)cccc1C(=O)NN(C(=O)c1cc(C)cc(C)c1)C(C)(C)C [RG-102240, N-(3-methoxy-2-ethylbenzoyl)-N′-(3,5-dimethylbenzoyl)-N′-tert-butylhydrazine]
- Log(D) Octanol/pH 7.4 [1]: 3.4
- Secreted Alkaline Phosphatase Day 2 ([4]; dose period 1 day): 7,302 ng/ml mouse sera
- Secreted Alkaline Phosphatase Day 3 ([4]; dose period 1 day): 7,670 ng/ml mouse sera
- Secreted Alkaline Phosphatase Day 7 ([4]; dose period 1 day): 3,784 ng/ml mouse sera
- Secreted Alkaline Phosphatase Day 2 ([4]; dose period 2 day): 13,046 ng/ml mouse sera
- Secreted Alkaline Phosphatase Day 3 ([4]; dose period 2 day): 15,831 ng/ml mouse sera
- Secreted Alkaline Phosphatase Day 7 ([4]; dose period 2 day): 8,816 ng/ml mouse sera
- Secreted Alkaline Phosphatase Day 2 ([4]; dose period 3 day): 8,064 ng/ml mouse sera
- Secreted Alkaline Phosphatase Day 3 ([4]; dose period 3 day): 11,392 ng/ml mouse sera
- Secreted Alkaline Phosphatase Day 7 ([4]; dose period 3 day): 8,372 ng/ml mouse sera

Structure (SMILES): CCc1ccc(C(=O)NN(C(=O)c2cc(C)cc(C)c2)C(C)(C)C)cc1 [RG-102125]
- Log(D) Octanol/pH 7.4 [1]: 3.2
